Experiment [1] can be described thus: cytotoxicity in HeLa cells, dose response, cytotoxicity control, cell-based, plate reader, dry powder (AID 651946). It counts as functional.
Experiment [2] is described as follows: CTGF mRNA reduction under YAP1 overexpression, dose response, mechanism study for YAP1 pathway inhibitor project, DLD1 cells, RT-qPCR, cherry-pick (AID 1053127). It counts as functional, cell-based. Conditions: DLD-1. A general note: Quantitative PCR measures a nucleic acid by following its amplification.
Experiment [3] in a line: YAP1 pathway inhibition via CTGF transcript levels, dose response, cell-based, DLD1 colon cancer, RT-qPCR, cherry-pick (AID 1053122). It counts as functional. As to conditions: Cancer cell lines.
In experiment [4] the target is Paired box protein Pax-8 (Homo sapiens, UniProt Q06710). The experiment can be described thus: inhibitors of PAX8-driven TPO luciferase reporter, dose response, RMG-I cells, cherry-pick (AID 687027).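 Note: luciferase reporter driven by Pax8 target thyroperoxidase promoter measured by SteadyGlo luminescence.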 The experiment is classed as functional, cell-based.
The nature of experiment [5]: IGROV1 ovarian cancer cell cytotoxicity, dose response, PAX8 inhibitor project, plate reader, dry powder samples (AID 743043). It counts as functional, cell-based. Conditions: IGROV-1.
A short description of experiment [6]: NIH:OVCAR-3 ovarian cancer cell cytotoxicity, dose response, PAX8 inhibitor project, plate reader, dry powder samples (AID 743044). It counts as functional, cell-based.
Experiment [7] is described as follows: cytotoxicity in OVCAR8 ovarian cancer cells, dose response, PAX8 project, cell-based, plate reader, dry powder samples (AID 743197). The experiment is classed as functional. As to conditions: OVCAR-8.
The nature of experiment [8]: IOSE-T80 ovarian epithelial cell cytotoxicity, dose response, cytotoxicity control for PAX8 inhibitor project, plate reader, dry powder samples (AID 743045). The experiment is classed as functional, cell-based.
Experiment [9] has as its target Major prion protein (Homo sapiens, UniProt P04156). The experiment is classed as functional, cell-based.
The nature of experiment [10]: cells.
Experiment [11] in a line: Late stage assay provider results from the probe development effort to identify inhibitors of the Plasmodium falciparum M17 Leucine Aminopeptidase (M17LAP): radiolabel-based cell-based dose response assay to identify compounds that inhibit P. falciparum growth in RBCs Set 2. It counts as functional.
Experiment [12] can be described thus: human group III sPLA2 inhibitors, dose response, biochemical, QFRET, IC50 (AID 743457).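 Note: green fluorescence rise as the enzyme cleaves BODIPY PC-A2 in liposomes; potency for inhibition of the enzyme.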
Experiment [13] addresses T1, High affinity choline transporter 1 (Homo sapiens, UniProt Q9GZV3).
T1 sequence (Q9GZV3 whole entry): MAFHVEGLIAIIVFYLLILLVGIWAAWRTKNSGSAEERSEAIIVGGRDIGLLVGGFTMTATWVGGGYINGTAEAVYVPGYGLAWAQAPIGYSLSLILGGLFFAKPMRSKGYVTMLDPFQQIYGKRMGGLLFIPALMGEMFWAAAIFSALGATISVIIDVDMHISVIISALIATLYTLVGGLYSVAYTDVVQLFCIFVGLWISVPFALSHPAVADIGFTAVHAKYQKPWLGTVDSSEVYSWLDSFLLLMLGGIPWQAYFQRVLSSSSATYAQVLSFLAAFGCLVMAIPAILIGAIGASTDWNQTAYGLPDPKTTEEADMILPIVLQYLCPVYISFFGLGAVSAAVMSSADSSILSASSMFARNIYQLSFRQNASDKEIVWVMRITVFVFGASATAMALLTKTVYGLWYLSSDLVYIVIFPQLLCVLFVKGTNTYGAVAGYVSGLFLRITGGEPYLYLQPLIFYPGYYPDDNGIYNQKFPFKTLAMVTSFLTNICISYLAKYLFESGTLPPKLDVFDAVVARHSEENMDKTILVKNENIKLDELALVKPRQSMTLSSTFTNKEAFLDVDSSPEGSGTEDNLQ
As to the kind of experiment: CHT inhibitors, dose response, cell-based, 5-point CRC, membrane potential dye (AID 504840). The experiment is classed as functional.

Experiment [14] has as its target T2, Short transient receptor potential channel 4 (Mus musculus, UniProt Q9QUQ5).
T2 sequence (Q9QUQ5 whole entry): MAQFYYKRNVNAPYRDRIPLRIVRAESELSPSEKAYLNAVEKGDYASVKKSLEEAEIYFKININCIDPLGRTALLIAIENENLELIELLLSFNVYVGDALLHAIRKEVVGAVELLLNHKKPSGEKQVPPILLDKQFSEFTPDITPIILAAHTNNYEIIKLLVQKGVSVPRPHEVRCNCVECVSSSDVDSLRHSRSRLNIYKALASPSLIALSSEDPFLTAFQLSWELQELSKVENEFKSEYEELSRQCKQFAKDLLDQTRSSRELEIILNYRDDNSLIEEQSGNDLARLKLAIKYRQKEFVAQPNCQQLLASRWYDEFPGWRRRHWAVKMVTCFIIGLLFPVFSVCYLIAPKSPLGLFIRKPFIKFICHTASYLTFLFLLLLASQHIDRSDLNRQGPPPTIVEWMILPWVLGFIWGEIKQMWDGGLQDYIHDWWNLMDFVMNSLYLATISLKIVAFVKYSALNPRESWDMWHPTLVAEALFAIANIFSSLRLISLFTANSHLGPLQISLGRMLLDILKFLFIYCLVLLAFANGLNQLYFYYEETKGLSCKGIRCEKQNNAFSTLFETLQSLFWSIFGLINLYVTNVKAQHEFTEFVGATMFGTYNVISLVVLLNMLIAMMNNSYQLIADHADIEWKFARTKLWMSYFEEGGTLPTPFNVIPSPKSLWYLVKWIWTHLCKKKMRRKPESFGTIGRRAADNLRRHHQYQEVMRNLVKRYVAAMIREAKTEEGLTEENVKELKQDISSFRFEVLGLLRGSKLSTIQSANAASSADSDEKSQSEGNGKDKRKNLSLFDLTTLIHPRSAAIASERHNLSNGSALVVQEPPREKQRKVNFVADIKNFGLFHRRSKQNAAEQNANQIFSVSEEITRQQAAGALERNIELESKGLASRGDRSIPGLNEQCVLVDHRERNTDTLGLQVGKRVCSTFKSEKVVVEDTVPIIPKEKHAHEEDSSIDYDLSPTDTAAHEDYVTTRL
As to the kind of experiment: mouse TRPC4 channel activators, dose response, cell-based, HEK293 TRPC4/mu-opioid, Fluo-4 calcium (AID 434937). It counts as functional.

Experiment [15] is described as follows: C. albicans growth with fluconazole, confirmation, fluorescence, retest (AID 2467). It counts as functional, cell-based.
The nature of experiment [16]: NIH-3T3 fibroblast cytotoxicity, dose response, cytotoxicity control, cell-based, fluorescence, Alamar Blue, secondary assay (AID 2327).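 Note: NIH-3T3 mouse fibroblasts cultured with fluconazole at 8 µg/mL.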 It counts as functional. (In general: Resazurin is reduced to fluorescent resorufin, in cell work by metabolically active cells.)
A short description of experiment [17]: HEK293T cytotoxicity, dose response, cytotoxicity control for miR-122 modulator project, cell-based, activator set, cherry-pick (AID 720690).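 Note: HEK293T human cells scored for general mammalian cytotoxicity.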 It counts as functional.
Experiment [18] concerns INS1. The experiment can be described thus: beta cell apoptosis inhibitors, cytokine rescue, dose response, luminescence, retest (AID 449756).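 Note: cell death triggered by IL-1 beta plus TNF-alpha plus IFN-gamma mixture; protective hits raise ATP signal compared with cytokine alone wells.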 As to conditions: Rattus norvegicus. The experiment is classed as functional, cell-based.
Experiment [19] can be described thus: HepG2 cell cytotoxicity, dose response, cytotoxicity control for non-replicating M. tuberculosis project (AID 489018). It counts as functional. Conditions: Mycobacterium tuberculosis.
Experiment [20] is described as follows: Vero E6 cell cytotoxicity, dose response, cytotoxicity control for non-replicating M. tuberculosis project, secondary assay (AID 492998). The experiment is classed as functional, VeroE6. As to conditions: Vero C1008.
Experiment [21] can be described thus: HEK293T cytotoxicity, dose response, cytotoxicity control for miR-122 modulator project, cell-based, inhibitor set, cherry-pick, set 2 (AID 720697). The experiment is classed as functional.
A short description of experiment [22]: THP-1 cell cytotoxicity, dose response, cytotoxicity control for non-replicating M. tuberculosis project (AID 489025). The experiment is classed as functional.
Experiment [23] is described as follows: HEK293 cell cytotoxicity, dose response, cytotoxicity control, cherry-picks, set 5 (AID 1053117). It counts as functional, cell-based.

Here are results for eight compounds from ChEMBL document CHEMBL1201862, “PubChem BioAssay data set” (2004).

The structures appear in SMILES notation. The source made the active and inactive calls.

For the compound `COc1ccccc1CSc1nnc(-c2ccccc2)o1`, the AC50 in experiment [1] was > 52 µM (inactive).
Turning to `CO[C@@H](CN(C)S(=O)(=O)c1ccc(C)cc1)[C@H](C)CN([C@@H](C)CO)S(=O)(=O)c1cccc(Cl)c1`, the AC50 was 17.7 µM (active) in experiment [2] and 16.4 µM (active) in [3].
As for `C[C@H](CO)N1C[C@H](C)[C@H](CN(C)Cc2ccc(C(=O)Nc3ccccc3N)cc2)Oc2ccc(N(C)C)cc2C1=O`, the AC50 in experiment [4] is 10.5 µM (active); in experiment [5] it was 23.4 µM (active); in experiment [6] it was 43.9 µM (active); in [7], 33.7 µM (active); in [8], 56.3 µM (active).
As for `COc1cccc(NC(=O)CCSc2ccc3ccccc3n2)c1`, the figures for the IC50 in experiment [9] and in experiment [10] were 3.97 µM (active) and > 138 µM (inactive), respectively.
In the case of `CCCCOc1ccc(CN(O)C(=O)c2ccccc2)cc1`, the IC50 in [11] is 13.6 µM (inactive).
Consider `O=C(NNC(=S)NC(=O)C12CC3CC(CC(C3)C1)C2)c1ccncc1`, for which the IC50 in [12] is > 122 µM (inactive); in experiment [13] it was 28.8 µM (active). Moreover, the EC50 in [14] is 4.22 µM (active); in experiment [15], 3.2 µM (active); in experiment [16] it was 26.4 µM (active).
Consider `N#CC1=C(N)Oc2c(ccc3cccnc23)C1c1ccccc1` (stereo not drawn), for which the figures for the AC50 in experiment [17], in experiment [18] and in experiment [21] were 42.5 µM (active), 4.54 µM (active) and 2.47 µM (active), respectively. Besides, the results for the CC50 in [19], in [20] and in experiment [22] were > 20 µM (active), 5.56 µM (active) and 4.84 µM (active), respectively.
On to `C[C@@H]1CN([C@H](C)CO)C(=O)c2cc(NC(=O)C3CCCCC3)ccc2O[C@H]1CN(C)Cc1ccc(-c2ccccc2)cc1`, for which, in experiment [23], the AC50 is > 52 µM (inactive).

In general, AC50 refers to the midpoint of the concentration-response curve, whichever way the signal moves. One may read the IC50 as the concentration at which inhibition is half-maximal. The term EC50 denotes the concentration at which the effect is half-maximal. Broadly, the CC50 is the concentration at which the toxic effect on the cells reaches its halfway point.
